SMILES strings stand for the structures. Counter-ions that a name gives are not always drawn.

The record followed here is article PMC8305768, “Design, Synthesis and Antiparasitic Evaluation of Click Phospholipids” (Molecules, 2021).

For data set [1], the target named is T1, CYP1A2 (Homo sapiens, UniProt P05177).
T1 construct: purchased Corning Inc; host or cells: baculovirus-infected insect cells
T1 sequence (P05177 2-516 limits assumed): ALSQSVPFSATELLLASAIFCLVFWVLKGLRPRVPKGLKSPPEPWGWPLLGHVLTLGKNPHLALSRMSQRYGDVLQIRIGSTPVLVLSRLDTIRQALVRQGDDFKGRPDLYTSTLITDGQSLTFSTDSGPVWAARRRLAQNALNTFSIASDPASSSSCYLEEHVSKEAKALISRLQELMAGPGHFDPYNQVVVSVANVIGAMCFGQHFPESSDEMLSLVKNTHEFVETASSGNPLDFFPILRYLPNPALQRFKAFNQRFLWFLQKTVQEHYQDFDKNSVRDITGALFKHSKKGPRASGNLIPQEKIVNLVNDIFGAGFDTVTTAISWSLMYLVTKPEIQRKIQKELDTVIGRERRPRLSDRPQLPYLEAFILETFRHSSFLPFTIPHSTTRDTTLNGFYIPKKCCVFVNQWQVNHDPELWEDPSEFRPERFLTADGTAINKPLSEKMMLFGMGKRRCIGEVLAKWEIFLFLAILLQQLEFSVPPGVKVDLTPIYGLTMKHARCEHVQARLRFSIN
The experiment in a line: Cytochrome P450 inhibition assay (P450-Glo) CYP1A2. Format: in vitro ADME. The following applies: compounds 10 μM; miltefosine 10 μM or 1 μM. An excerpt: Cytochrome (CYP) P450 inhibition assay: These assays made use of microsomal preparations of CYP450 (1A2, 2C9, 2C19, 2D6 and 3A4) from baculovirus-infected insect cells (Corning Inc., Corning, NY, USA) and cytochrome c reductase (and cytochrome b5 for CYP450 3A4). For detection of CYP450 activity, the luminescence-based P450-Glo (Promega Corp., Madison, WI, USA) assay system was used that contained a luminogenic CYP450 substrate, lyophilized luciferin detection reagent and reconstitution buffer. The substrates were luciferin derivatives of CYP450-specific substrates that produce (4S)-4,5-dihydro-2-(6-hydroxybenzothiazolyl)-4-thiazolecarboxylic acid (D-luciferin) after cleavage by CYP450 (CYP450 3A4, luciferin-IPA; CYP450 2C19, luciferin-H EGE; CYP450 2C9, luciferin-H; CYP450 2D6, luciferin-ME EGE; CYP450 1A2, luciferin-1A2). CYP450 reactions were initiated by addition of the NADPH regeneration system to the enzyme–substrate mixture with the luciferin detection reagent stopping the reaction and the D-luciferin being converted to oxyluciferin under the production of light being proportional to the CYP450 activity. The CYP450 assays were performed using the Tecan Fluent liquid-handling automation platform (Tecan Group Ltd., Mannedorf, Switzerland) in the 384-well assay format. Compounds were added into an empty 384-well plate (100 nL/well in 1% v/v DMSO) using the Echo 550 Liquid Handler followed by the addition of 5 μL/well of the CYP450/substrate mixture and incubation for 30 min at 37 °C, after which the reaction was initiated by the addition of the 5 μL/well NADPH regeneration system. After a further 30-min incubation at 37 °C, the CYP450 reaction was stopped and the luciferase reaction was simultaneously initiated by addition of 10 μL/well of luciferin detection reagent, followed by an additional 30-min incubation at 37 °C. The luminescence signal was detected using an Infinite M1000 PRO plate reader (Tecan Group Ltd., Mannedorf, Switzerland). The NCs yielded 0% inhibition (1% v/v DMSO) and standard CYP450 specific inhibitors were used as positive controls, yielding 100% inhibition (CYP450 1A2, alpha-naphthoflavone; CYP450 2C9, sulfaphenazole; CYP450 2C19, troglitazone; CYP450 2D6, quinidine; CYP450 3A4, ketoconazole).
Data analysis: The screening data were obtained in triplicate and analysed using ActivityBase (IDBS, Guildford, UK), and outlier elimination in the control wells was performed using the 3-sigma method. Unless stated, dose–response experiments were performed in the 11-point format with the IC50 value, Hill slope, minimum signal and maximum signal for each dose–response curve obtained using a four-parameter logistic fit in the XE module of ActivityBase (IDBS).

The test system of data set [2] is L. donovani strain BPK190 amastigotes. Nature of the data set: Activity against L. donovani intramacrophage amastigotes (bone marrow-derived macrophages, qPCR). Format: cell-based, Leishmania donovani. As to conditions: infected bone marrow-derived macrophages, 48 h; for inhibition of growth at 5 µM: Leishmania donovani, Macrophage, read-out: Parassite Load Reduction (%). Here is the method:
L. donovani strain BPK 190 [55] was cultivated at 25 °C in modified Medium199 (Sigma-Aldrich, with 20% heat-inactivated FCS, 40 mM HEPES pH 7.4, 0.2% NaHCO3, 100 μM adenin, 1.2 μg/mL 6-biopterin and 10 μg/mL haem, with 1 × Pen/Strep/l-glutamine (Sigma, Saint Louis, MI, USA), pH 7.0).
Activity against L. donovani strain BPK190 was tested in vitro using bone marrow-derived macrophages as host cells. Infection was established for 24 h prior to the addition of compounds from 10 mM stocks in DMSO. Parasite load was determined 48 h later by quantifying Leishmania actin DNA relative to mouse actin DNA using real time qPCR as described.
A general note: Quantitative PCR measures a nucleic acid by following its amplification.

The subject of data set [3] is WI-38 cells. Nature of the data set: Cytotoxicity assay WI-38 (CellTiter-Glo). Format: cell-based. The following applies: compounds 10 μM; miltefosine 10 μM or 1 μM. An excerpt: Early ADMET profiling: The early ADMET profiling of the new derivatives involved a group of assays widely used in drug development as part of the preclinical in vitro toxicity studies. In particular our panel included hERG inhibition, five cytochromes P450 (CYP1A2, CYP2C9, CYP2C19, CYP2D6 and CYP3A4), two cell-lines (A549, epithelial human lung adenocarcinoma, WI38 and foetal lung fibroblasts), Aurora B kinase and mitochondrial toxicity, in addition to the parasite relevant toxicity against THP1 macrophages. The compounds were tested at 10 μΜ, whilst the miltefosine control was tested at 10 μΜ or 1 μM. The toxicity of the new click phospholipids is depicted in Figure 3 in a traffic light format (from red through yellow to green for decreasing ADMET liabilities).
Cytotoxicity assay: A549 cells and WI-38 cells were grown on surface-modified T175 cell culture flasks in Dulbecco’s modified Eagle medium with 10% foetal calf serum (FCS), streptomycin (100 μg/mL) and 100 U/mL penicillin G. At about 80% confluency, cells were washed, trypsinized, resuspended and counted in RPMI-1640 medium before seeding (in triplicate) into white 384-well microtiter plates (20 μL) at 500 cells/well and incubated at 37 °C in the presence of 5% CO2 for 24 h. A total of 20 μL/well of CellTiter-Glo (CTG) reagent (Promega Corp., Madison, WI, USA) was added to each well, and plates were read using an EnVision Multilabel 2103 Reader after a 10-min incubation in the dark. Dose–response assays for compounds made use of 11-point curves. Each test compound (200 nL of 10 mM top concentration in 100% v/v DMSO) was added to cells seeded in polystyrene 384-well cell culture microtiter plates using the Echo 550 Liquid Handler and read after 24 h of incubation at 37 °C in the presence of 5% CO2 using CTG as described above. The compounds/positive control (paclitaxel with final concentration of 10 μM and 1% v/v DMSO) and no compound (final 1% v/v DMSO) were added into the 384-well plates (200 nL/well; 1% v/v DMSO) using the Echo 550 Liquid Handler. The raw luminescence signal of each sample was converted into the percentage of cell growth.
For orientation: In ATP-based viability assays light output follows the ATP content of the culture.

With `CCCCCCCCc1noc(CCCCCCCCCCOP(=O)([O-])OCC[N+](C)(C)C)n1` [Compound 54, 10-(3-octyl-1,2,4-oxadiazol-5-yl)decyl (2-(trimethylammonio)ethyl) phosphate inner salt], in data set [1], the “% inhibition ± SD at 10 μΜ CYP1A2” value is recorded as 9.37%.

Regarding `C[N+](C)(C)CCOP(=O)([O-])OCCCCCCCCCCCn1cc(CC2CCCC2)nn1` [Compound 28, 11-(4-(cyclopentylmethyl)-1H-1,2,3-triazol-1-yl)undecyl (2-(trimethylammo nio)ethyl) phosphate inner salt], in data set [2], the inhibition of growth at 5 µM is 0%. The “% inhibition ± SD at 10 μΜ CYP1A2” value in data set [1] was “–13.84%”. Also, the “% cell growth ± SD at 10 μΜ W1-38” value in data set [3] is on record as 114.04%.

On to `C[N+](C)(C)CCOP(=O)([O-])OCCCCCCCCCCCn1cc(CCCCCCCCC(=O)O)nn1` [Compound 34, 11-(4-(8-carboxyoctyl)-1H-1,2,3-triazol-1-yl)undecyl (2-(trimethylammonio)ethyl) phosphate inner salt], for which the inhibition of growth at 5 µM in data set [2] turned out to be 43.8%. Moreover, in data set [1], the “% inhibition ± SD at 10 μΜ CYP1A2” value was “–3.73%”.

Turning to `CCCCCCCCCCCc1nnc(CCCCCCCCCCOP(=O)([O-])OCC[N+](C)(C)C)o1` [Compound 66, 2-(trimethylammonio)ethyl (10-(5-undecyl-1,3,4-oxadiazol-2-yl)decyl) phosphate inner salt], the “% inhibition ± SD at 10 μΜ CYP1A2” value in data set [1] came out at 12.37%.

Consider `C[N+](C)(C)CCOP(=O)([O-])OCCCCCn1cc(CCCCCCCCNC(=O)OCc2ccccc2)nn1` [Compound 31, 5-(4-(8-(((benzyloxy)carbonyl)amino)octyl)-1H-1,2,3-triazol-1-yl)pentyl (2-(trimethylammonio)ethyl) phosphate inner salt], for which the inhibition of growth at 5 µM in data set [2] was determined as 59.2%. The “% inhibition ± SD at 10 μΜ CYP1A2” value in data set [1] worked out at 13.80%. In data set [3], the “% cell growth ± SD at 10 μΜ W1-38” value is on record as 123.63%.

With `CCCCCCCCc1noc(CCCCCOP(=O)([O-])OCC[N+](C)(C)C)n1` [Compound 53, 5-(3-octyl-1,2,4-oxadiazol-5-yl)pentyl (2-(trimethylammonio)ethyl) phosphate inner salt], the “% inhibition ± SD at 10 μΜ CYP1A2” value in data set [1] turned out to be 20.03%. For the same compound, in data set [3], the “% cell growth ± SD at 10 μΜ W1-38” value is on record as 83.83%.

Regarding `CCCCCCCCCCc1cc(CCCCCCCCCCOP(=O)([O-])OCC[N+](C)(C)C)no1` [Compound 41, 10-(5-decylisoxazol-3-yl)decyl (2-(trimethylammonio)ethyl) phosphate inner salt], the “% inhibition ± SD at 10 μΜ CYP1A2” value in data set [1] came to 10.86%.

On to `C[N+](C)(C)CCOP(=O)([O-])OCCCCCn1cc(CCCCCCCCN)nn1` [Compound 35, 5-(4-(8-aminooctyl)-1H-1,2,3-triazol-1-yl)pentyl (2-(trimethylammonio)ethyl) phosphate inner salt], for which the inhibition of growth at 5 µM in data set [2] was 69.1%. Besides, the “% inhibition ± SD at 10 μΜ CYP1A2” value in data set [1] is given as 9.42%. In data set [3], the “% cell growth ± SD at 10 μΜ W1-38” value came out at 119.10%.

For the compound `C[N+](C)(C)CCCOP(=O)([O-])OCCCCCCCCCCCn1cc(CC2CCCCC2)nn1` [Compound 33, 11-(4-(cyclohexylmethyl)-1H-1,2,3-triazol-1-yl)undecyl (3-(trimethylammonio)propyl) phosphate inner salt], the inhibition of growth at 5 µM in data set [2] turned out to be 47.8%. Besides, in data set [1], the “% inhibition ± SD at 10 μΜ CYP1A2” value came out at 15.23%. Further, the “% cell growth ± SD at 10 μΜ W1-38” value in data set [3] is given as 136.32%.

In the case of `CCCCCc1cn(CCCCCCCCCCCOP(=O)([O-])OCC[N+](C)(C)C)nn1` [Compound 25, 11-(4-pentyl-1H-1,2,3-triazol-1-yl)undecyl (2-(trimethylammonio)ethyl) phosphate inner salt], the inhibition of growth at 5 µM in data set [2] stood at 0%. Also, in data set [1], the “% inhibition ± SD at 10 μΜ CYP1A2” value was “–20.41%”. Besides, the “% cell growth ± SD at 10 μΜ W1-38” value in data set [3] is 93.46%.

Turning to `C[N+](C)(C)CCOP(=O)([O-])OCCCCCCCCCCCn1cc(CCCCCCCCNC(=O)OCc2ccccc2)nn1` [Compound 32, 11-(4-(8-(((benzyloxy)carbonyl)amino)octyl)-1H-1,2,3-triazol-1-yl)undecyl (2-(trimethylammonio)ethyl) phosphate inner salt], the “Parassite Load Reduction (%)” value in data set [2] (5 μM) was “abolished the activity”. Moreover, the inhibition of growth at 5 µM in data set [2] turned out to be 0.7%. In data set [1], the “% inhibition ± SD at 10 μΜ CYP1A2” value stood at 12.02%.

Take `C[N+](C)(C)CCOP(=O)([O-])OCCCCCCCCCCCn1cc(CC2CCCCC2)nn1` [Compound 29, 11-(4-(cyclohexylmethyl)-1H-1,2,3-triazol-1-yl)undecyl (2-(trimethylammonio)ethyl) phosphate inner salt]: the inhibition of growth at 5 µM in data set [2] stood at 41.7%. Also, the “% inhibition ± SD at 10 μΜ CYP1A2” value in data set [1] is reported as “–28.56%”. In addition, the “% cell growth ± SD at 10 μΜ W1-38” value in data set [3] was 92.93%.

As for `CCCCCCCc1nnc(CCCCCCCCCCOP(=O)([O-])OCC[N+](C)(C)C)o1` [Compound 65, 10-(5-heptyl-1,3,4-oxadiazol-2-yl)decyl (2-(trimethylammonio)ethyl) phosphate inner salt], in data set [1], the “% inhibition ± SD at 10 μΜ CYP1A2” value came to 18.05%. The “% cell growth ± SD at 10 μΜ W1-38” value in data set [3] was determined as 77.74%.

With `CCCCCCCCCCCCCCCCOP(=O)([O-])OCC[N+](C)(C)C` [Miltefosine, hexadecylphosphocholine, reference compound], the inhibition of growth at 5 µM in data set [2] was 44.3%. In data set [1], the “% inhibition ± SD at 10 μΜ CYP1A2” value was “–20.62%”. Further, the “% cell growth ± SD at 10 μΜ W1-38” value in data set [3] is given as 113.50%.
